What was measured:
NBD1 = experiment: Aggregation analysis using differential static light scattering (DSLS), thermal stability of NBD1; assay type: binding, Human; settings: 100 μM compound; ΔTagg = Tagg minus average Tagg of DMSO control wells; NBD1 0.2 mg/ml
Method: Example 23. Aggregation Analysis Using Differential Static Light Scattering (DSLS)
Purified recombinant NBD1 was produced using previously described methods (A. Schmidt, J. L. Mendoza, P. J. Thomas (2011) Biochemical and Biophysical Approaches to Probe CFTR Structure (365-376) M. D. Amaral, K. Kunzelmann (eds.), Cystic Fibrosis, Methods in Molecular Biology 741, Springer Science+Business Media). The effect of test compounds on thermal stability of NBD1 was evaluated by differential static light scattering (DSLS) using the Harbinger Stargazer-384 instrument (Epiphyte Three, Toronto, Canada). Test compounds were dissolved and diluted to desired concentrations in 100% DMSO. The compounds or DMSO controls (100 nL) were stamped into wells of a […] low volume optical plate (Corning Inc., Corning, NY) using the Echo 555 acoustic liquid handler (Labcyte Inc., San Jose, CA).
NBD1 protein was diluted to 0.2 mg/ml in S200 buffer (50 mM Tris-HCl, 150 mM NaCl, 5 mM MgCl2, 2 mM ATP, 2 mM DTT, pH7.6) containing 1% glycerol. 10 μL of protein solution was aliquoted into the 384-well plate harboring the test compounds and 10 μL mineral oil was overlayed onto the protein solution, using the epMotion robotic liquid handler (Eppendorf North America, Hauppauge, NY). After placing into the Stargazer instrument, the plate was heated at 1° C. per minute to 70° C. Images were captured from 25° C. to 70° C. every 0.5° C. At the end of the experiment run, instrument software integrated image files and analyzed data automatically. A linear regression curve was generated for each well, representing the increase in light scattering over time. A temperature of aggregation (Tagg) was calculated based on the inflection point of the curve. To better compare data across experiments the average Tagg for DMSO control wells was calculated and subtracted from values for wells containing compounds to obtain a “ΔTagg” value. These ΔTagg values reflect stabilizing efficacy of the compounds.

CFTR = target: T1, CFTR (Homo sapiens, UniProt P13569, DEL508-508); experiment: TECC24 recording of CFTR-mediated transepithelial chloride transport in ΔF508 homozygous CF-HBE cells; assay type: cell-based; settings: 48 hours incubation, AUC of forskolin-stimulated IEQ, test agent AUC divided by vehicle (DMSO) AUC, primary CF-HBE cells
T1 construct: Primary human bronchial epithelial cells from a ΔF508 homozygous CF donor; host or cells: primary CF-HBE cells, ΔF508 homozygous donor
Method: Example 24. TECC24 AUC Fold Over DMSO @10 μM
The effects of a test agent on CFTR-mediated transepithelial chloride transport was measured using TECC24 recording analysis. Test agents were solubilized in DMSO. Solubilized test agents were mixed with incubation medium containing DMEM/F12, Ultroser G (2%; Crescent Chemical, catalog #67042), Hyclone Fetal Clone 11 (2%; GE Healthcare, catalog #SH30066.02), bovine brain extract (0.25%; Lonza, catalog #CC-4098), insulin (2.5 μg/mL), IL-13 (10 ng/mL), hydrocortisone (20 nM), transferrin ([…]), triiodothyronine (500 nM), ethanolamine (250 nM), epinephrine (1.5 μM), phosphoethanolamine (250 nM), and retinoic acid (10 nM). Primary human bronchial epithelial cells from a ΔF508 homozygous CF donor (CF-HBE cells; from University of North Carolina Cystic Fibrosis Tissue Procurement Center), grown on Transwell HTS 24-well cell culture inserts (Costar, catalog #3378), were exposed to test agents or controls dissolved in incubation medium. The CF-HBE cells were cultured at 36.5° C. for 48 hours before TECC24 recordings were performed in the presence or absence of test agent, a positive control or vehicle (DMSO).
Following incubation, the transwell cell culture inserts containing the test agent or control-treated CF-HBE cells were loaded onto a TECC24 apparatus (TECC v7 or MTECC v2; EP Design) to record the transepithelial voltage (VT) and resistance (TEER) using 4 AgCl electrodes per well configured in current-clamp mode. The apical and basolateral bath solutions both contained (in mM) 140 NaCl, 5 KCl, 2 CaCl2), 1 MgCl2, 10 Hepes, and 10 glucose (adjusted to pH 7.4 with NaOH). To inhibit basal Na+ absorption, the ENaC inhibitor benzamil (10 μM) was added to the bath. Then, the adenylate cyclase activator, forskolin (10 μM), was added to the bath to activate CFTR. The forskolin-stimulated Cl− transport was halted by addition of CFTR inhibitor-172 (20 μM) to the bath at the end of the experiment to confirm specificity. VT and TEER recordings were digitally acquired at routine intervals using TECC or MTECC software (EP Design). VT and TEER were transformed into equivalent transepithelial Cl− current (IEQ), and the Area Under the Curve (AUC) of the IEQ time course between forskolin and CFTR inhibitor-172 addition is generated using Excel (Microsoft). Efficacy is expressed as the ratio of the test agent AUC divided by vehicle AUC. EC50s based on AUC are generated using the non-linear regression log(agonist) vs. response function in Prism software (Graphpad) with HillSlope fixed=1.
If a test agent increased the AUC of the forskolin-stimulated IEQ relative to vehicle in CF-HBE cells, and this increase was inhibited by CFTR inhibitor-172, then the test agent was considered a CFTR corrector.

T1 sequence (P13569 with tags, fused parts or gaps DEL508-508): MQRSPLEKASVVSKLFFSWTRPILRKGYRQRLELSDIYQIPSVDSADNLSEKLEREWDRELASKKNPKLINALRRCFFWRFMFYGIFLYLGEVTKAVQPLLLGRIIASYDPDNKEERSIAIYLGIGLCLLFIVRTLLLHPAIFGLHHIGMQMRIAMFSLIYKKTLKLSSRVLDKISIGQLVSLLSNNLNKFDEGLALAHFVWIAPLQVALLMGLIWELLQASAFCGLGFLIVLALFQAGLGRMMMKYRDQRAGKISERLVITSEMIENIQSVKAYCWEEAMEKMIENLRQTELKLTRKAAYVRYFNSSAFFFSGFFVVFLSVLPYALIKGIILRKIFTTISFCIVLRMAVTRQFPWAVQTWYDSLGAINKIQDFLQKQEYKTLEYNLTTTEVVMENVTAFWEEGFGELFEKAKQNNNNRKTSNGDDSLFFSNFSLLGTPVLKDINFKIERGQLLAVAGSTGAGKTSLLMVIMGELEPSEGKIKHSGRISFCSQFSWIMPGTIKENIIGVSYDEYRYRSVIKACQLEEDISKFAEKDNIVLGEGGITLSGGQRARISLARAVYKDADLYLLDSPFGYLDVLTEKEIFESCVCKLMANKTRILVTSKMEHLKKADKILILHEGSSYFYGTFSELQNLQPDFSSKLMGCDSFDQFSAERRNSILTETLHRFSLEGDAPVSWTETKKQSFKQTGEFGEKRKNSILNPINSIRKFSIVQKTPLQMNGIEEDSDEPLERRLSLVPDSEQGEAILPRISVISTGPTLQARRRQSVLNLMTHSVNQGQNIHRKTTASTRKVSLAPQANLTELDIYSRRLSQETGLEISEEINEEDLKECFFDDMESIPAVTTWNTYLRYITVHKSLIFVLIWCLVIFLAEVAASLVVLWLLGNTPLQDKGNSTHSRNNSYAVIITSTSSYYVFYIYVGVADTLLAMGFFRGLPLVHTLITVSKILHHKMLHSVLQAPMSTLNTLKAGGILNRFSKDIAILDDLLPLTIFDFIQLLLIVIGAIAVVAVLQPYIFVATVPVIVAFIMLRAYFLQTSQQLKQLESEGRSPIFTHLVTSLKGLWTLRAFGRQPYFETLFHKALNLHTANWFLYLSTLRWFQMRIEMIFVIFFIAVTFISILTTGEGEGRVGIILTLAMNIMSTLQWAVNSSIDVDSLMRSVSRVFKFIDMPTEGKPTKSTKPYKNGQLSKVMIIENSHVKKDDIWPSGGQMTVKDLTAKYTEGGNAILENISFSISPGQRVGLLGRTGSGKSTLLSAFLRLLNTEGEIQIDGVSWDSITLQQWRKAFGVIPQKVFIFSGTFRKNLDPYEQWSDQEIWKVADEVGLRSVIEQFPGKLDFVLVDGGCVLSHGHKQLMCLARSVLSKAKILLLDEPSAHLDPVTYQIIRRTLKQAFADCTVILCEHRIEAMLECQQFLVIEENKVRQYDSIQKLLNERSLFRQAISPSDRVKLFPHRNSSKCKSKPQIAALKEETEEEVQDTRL

SMILES	TECC24 @ 10 uM over DMSO (CFTR)	DSLS NBD1/3D Human Stability delta-T (° C.) @ 100 (μM) (NBD1)
O=C(O)CCc1cccc([C@H]2NCCc3nc(-c4cc(Oc5c(F)cc6[nH]ccc6c5F)ccc4F)[nH]c32)c1F (single isomer, unassigned) [Example 3]	A (AUC @10 uM >=12)	A (T ≥ 8° C.)
O=C(O)Cc1cccc(C2OCCc3cn(-c4cc(Oc5c(F)cc6[nH]ccc6c5F)ccc4F)nc32)c1F (stereo not drawn) [Example 1, 2-(3-(2-(5-((4,6-difluoro-1H-indol-5-yl)oxy)-2-fluorophenyl)-2,4,5,7-tetrahydropyrano[3,4-c]pyrazol-7-yl)-2-fluorophenyl)acetic acid]	C (AUC @10 uM <= 4)	B (4-8° C.)
Cc1c(-c2cc(Oc3c(F)cc4[nH]ccc4c3S(C)(=O)=O)ccc2F)nc2n1CCNC2c1cccc(CC(C)C(=O)O)c1F (stereo not drawn) [Example 8, 3-[2-fluoro-3-[2-[2-fluoro-5-[(6-fluoro-4-methylsulfonyl-1H-indol-5-yl)oxy]phenyl]-3-methyl-5,6,7,8-tetrahydroimidazo[1,2-a]pyrazin-8-yl]phenyl]-2-methyl-propanoic acid]	C (AUC @10 uM <= 4)	A (T ≥ 8° C.)
CC(Cc1cccc(C2c3nc(-c4cc(Oc5c(F)cc6[nH]ccc6c5F)ccc4F)[nH]c3CCN2C)c1F)C(=O)O (stereo not drawn) [Example 11, 3-[3-[2-[5-[(4,6-difluoro-1H-indol-5-yl)oxy]-2-fluoro-phenyl]-5-methyl-1,4,6,7-tetrahydroimidazo[4,5-c]pyridin-4-yl]-2-fluoro-phenyl]-2-methyl-propanoic acid]	C (AUC @10 uM <= 4)	A (T ≥ 8° C.)

More lines, main results first:

TECC24 @ 10 uM over DMSO (CFTR)	SMILES	DSLS NBD1/3D Human Stability delta-T (° C.) @ 100 (μM) (NBD1)
B (AUC @10 uM between 4-12)	O=C(O)CCc1cccc(C2c3nc(-c4cc(Oc5c(F)cc6[nH]ccc6c5F)ccc4F)[nH]c3CCN2CC(F)F)c1F (stereo not drawn) [Example 12, 3-[3-[5-(2,2-difluoroethyl)-2-[5-[(4,6-difluoro-1H-indol-5-yl)oxy]-2-fluoro-phenyl]-1,4,6,7-tetrahydroimidazo[4,5-c]pyridin-4-yl]-2-fluoro-phenyl]propanoic acid]	A (T ≥ 8° C.)
C (AUC @10 uM <= 4)	CS(=O)(=O)c1c(Oc2ccc(F)c(-c3nc4c([nH]3)C(c3cccc(CCC(=O)O)c3F)NCCC4)c2)c(F)cc2[nH]ccc12 (stereo not drawn) [Example 22, 3-[2-fluoro-3-[2-[2-fluoro-5-[(6-fluoro-4-methylsulfonyl-1H-indol-5-yl)oxy]phenyl]-3,4,5,6,7,8-hexahydroimidazo[4,5-c]azepin-4-yl]phenyl]propanoic acid]	A (T ≥ 8° C.)
